Activity calls are given as the source filed them. The calls are words filed in the database; no cut-off is given here.
What follows are compounds tested on L5178Y (assay: Antiproliferative activity against Mus musculus (mouse) L5178Y cells transfected with mdr1 (unknown origin) after 72 hr by MTT assay).
Type: functional, cell-based

SMILES	Activity
COc1ccc(OC)c(C2NC(=O)NC(C)=C2C(=O)c2ccccc2)c1 (stereo unspecified)	Active
CC1=C(C(=O)c2ccccc2)C(c2cccc(Oc3ccccc3)c2)NC(=S)N1 (stereo unspecified)	Active
CC1=C(C(=O)c2ccccc2)C(c2cccc3ccccc23)NC(=O)N1 (stereo unspecified)	Active
CC1=C(C(=O)c2ccccc2)C(c2c[nH]c3ccccc23)NC(=O)N1 (stereo unspecified)	Active

The compounds below were run against T1, ATP-dependent translocase ABCB1 (Homo sapiens, UniProt P08183) (assay: Inhibition of MDR1 (unknown origin)-mediated rhodamine 123 uptake expressed in mouse L5178Y cells assessed as fluorescence activity ratio at 4 uM by flow cytometry relative to untreated control).
T1 sequence (P08183 whole entry): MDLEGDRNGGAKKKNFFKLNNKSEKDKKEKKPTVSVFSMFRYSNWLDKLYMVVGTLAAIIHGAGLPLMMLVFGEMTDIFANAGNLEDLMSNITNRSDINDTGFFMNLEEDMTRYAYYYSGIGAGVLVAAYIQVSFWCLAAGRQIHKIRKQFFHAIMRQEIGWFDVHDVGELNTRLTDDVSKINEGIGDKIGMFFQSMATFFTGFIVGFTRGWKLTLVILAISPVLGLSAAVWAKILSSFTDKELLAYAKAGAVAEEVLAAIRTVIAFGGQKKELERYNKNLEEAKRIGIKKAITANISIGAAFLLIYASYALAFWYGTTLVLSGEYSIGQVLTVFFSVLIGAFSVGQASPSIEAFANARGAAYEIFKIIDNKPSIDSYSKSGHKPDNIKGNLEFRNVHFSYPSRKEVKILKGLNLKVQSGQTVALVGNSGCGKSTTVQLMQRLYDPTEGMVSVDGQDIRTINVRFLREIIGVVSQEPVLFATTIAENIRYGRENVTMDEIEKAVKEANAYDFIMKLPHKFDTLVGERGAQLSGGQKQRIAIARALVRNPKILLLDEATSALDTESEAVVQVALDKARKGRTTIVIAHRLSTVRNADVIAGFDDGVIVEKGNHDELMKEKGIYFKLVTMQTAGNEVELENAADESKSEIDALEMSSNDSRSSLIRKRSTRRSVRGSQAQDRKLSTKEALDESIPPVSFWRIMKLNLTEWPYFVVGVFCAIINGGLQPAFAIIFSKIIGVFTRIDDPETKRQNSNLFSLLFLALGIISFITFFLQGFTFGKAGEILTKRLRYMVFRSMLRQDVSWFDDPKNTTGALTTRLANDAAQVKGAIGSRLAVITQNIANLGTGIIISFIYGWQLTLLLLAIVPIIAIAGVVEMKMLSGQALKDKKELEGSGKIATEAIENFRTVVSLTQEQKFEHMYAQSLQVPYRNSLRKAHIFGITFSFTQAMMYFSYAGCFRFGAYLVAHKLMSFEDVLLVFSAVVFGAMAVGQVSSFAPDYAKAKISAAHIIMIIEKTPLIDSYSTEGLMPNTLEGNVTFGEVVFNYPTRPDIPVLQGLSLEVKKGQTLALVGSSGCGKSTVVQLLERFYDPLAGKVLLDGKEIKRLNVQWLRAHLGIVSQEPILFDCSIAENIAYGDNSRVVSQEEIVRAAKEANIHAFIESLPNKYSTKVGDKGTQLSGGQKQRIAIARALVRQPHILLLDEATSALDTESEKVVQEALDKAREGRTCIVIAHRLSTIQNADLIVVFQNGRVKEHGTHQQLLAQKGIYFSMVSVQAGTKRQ
Type: cell-based

SMILES	RLU
COc1ccc(OC)c(C2NC(=O)NC(C)=C2C(=O)c2ccccc2)c1 (stereo unspecified)	36.85
COc1cc(C2NC(=O)NC(C)=C2C(=O)c2ccccc2)cc(OC)c1OC (stereo unspecified)	0.96
CC1=C(C(=O)c2ccccc2)C(c2cccc(Oc3ccccc3)c2)NC(=S)N1 (stereo unspecified)	3.68
CC1=C(C(=O)c2ccccc2)C(c2ccco2)NC(=O)N1 (stereo unspecified)	1.26
CC1=C(C(=O)c2ccccc2)C(c2ccc(C#N)cc2)NC(=O)N1 (stereo unspecified)	2.11
CC1=C(C(=O)c2ccccc2)C(/C=C/c2ccccc2)NC(=O)N1 (stereo unspecified)	0.99
CC1=C(C(=O)c2ccccc2)C(c2cccc(O)c2)NC(=O)N1 (stereo unspecified)	0.97
CC1=C(C(=O)c2ccccc2)C(c2ccccc2Cl)NC(=O)N1 (stereo unspecified)	0.98
COc1cc(OC)cc(C2NC(=O)NC(C)=C2C(=O)c2ccccc2)c1 (stereo unspecified)	1.15
CC1=C(C(=O)c2ccccc2)C(c2c3ccccc3cc3ccccc23)NC(=O)N1 (stereo unspecified)	4.57
CC1=C(C(=O)c2ccccc2)C(c2cccc(Oc3ccccc3)c2)NC(=O)N1 (stereo unspecified)	1.23
CC1=C(C(=O)c2ccccc2)C(c2ccccc2)NC(=S)N1 (stereo unspecified)	0.97
CC1=C(C(=O)c2ccccc2)C(c2cccc(Cl)c2)NC(=S)N1 (stereo unspecified)	1.21
CC1=C(C(=O)c2ccccc2)C(c2cccc(Br)c2)NC(=O)N1 (stereo unspecified)	1.15
CC1=C(C(=O)c2ccccc2)C(c2cc(Br)c(O)c(Br)c2)NC(=O)N1 (stereo unspecified)	0.82
CC1=C(C(=O)c2ccccc2)C(c2ccc(Cl)cc2)NC(=S)N1 (stereo unspecified)	1.03
COc1ccc(C2NC(S)=NC(C)=C2C(=O)c2ccccc2)cc1OC (stereo unspecified)	1.28
CC1=C(C(=O)c2ccccc2)C(c2ccccc2O)NC(=S)N1 (stereo unspecified)	1.03
CC1=C(C(=O)c2ccccc2)C(c2cccc(Br)c2)NC(=S)N1 (stereo unspecified)	1.11
CC1=C(C(=O)c2ccccc2)C(c2ccc(Cl)cc2)NC(=O)N1 (stereo unspecified)	0.96
CC1=C(C(=O)c2ccccc2)C(c2ccccc2[N+](=O)[O-])NC(=O)N1 (stereo unspecified)	0.94
CC1=C(C(=O)c2ccccc2)C(c2cccc(Cl)c2)NC(=O)N1 (stereo unspecified)	0.89
CC1=C(C(=O)c2ccccc2)C(c2cccc([N+](=O)[O-])c2)NC(=O)N1 (stereo unspecified)	1.39
CC1=C(C(=O)c2ccccc2)C(c2ccccc2Cl)NC(=S)N1 (stereo unspecified)	1.17
CC1=C(C(=O)c2ccccc2)C(c2cccc3ccccc23)NC(=O)N1 (stereo unspecified)	29.87
CC1=C(C(=O)c2ccccc2)C(c2ccccc2)NC(=O)N1 (stereo unspecified)	1.09
CC1=C(C(=O)c2ccccc2)C(/C=C/c2ccccc2)NC(=S)N1 (stereo unspecified)	1.28
CC1=C(C(=O)c2ccccc2)C(c2c[nH]c3ccccc23)NC(=O)N1 (stereo unspecified)	78.56
CC1=C(C(=O)c2ccccc2)C(c2ccccc2[N+](=O)[O-])NC(=S)N1 (stereo unspecified)	0.88
COc1cc(C2NC(=S)NC(C)=C2C(=O)c2ccccc2)cc(OC)c1OC (stereo unspecified)	0.93

These compounds were tested against Voltage-gated L-type calcium channel (Rattus norvegicus, UniProt P22002+Q02485+P27732) (assay: Inhibition of L-type calcium channel in Rattus norvegicus (rat) heart artery myocytes).
Type: tissue-based

SMILES	IC50 [nM]
CC1=C(C(=O)c2ccccc2)C(c2cccc(Oc3ccccc3)c2)C(C(=O)c2ccccc2)=C(C)N1	1120

The compounds below were run against T1, ATP-dependent translocase ABCB1 (assay: Inhibition of MDR1 (unknown origin)-mediated rhodamine 123 uptake expressed in mouse L5178Y cells assessed as fluorescence activity ratio at 21.99 uM by flow cytometry relative to untreated control).
Type: cell-based

SMILES	RLU
COc1ccc(CCN(C)CCCC(C#N)(c2ccc(OC)c(OC)c2)C(C)C)cc1OC (stereo unspecified) [VERAPAMIL]	4.26

— ChEMBL document CHEMBL3044800, “Synthesis, characterization and anticancer activity of 3-aza-analogues of DP-7” (Med Chem Res, 2012)
